Values quoted from earlier work in patent publication US9034628B2, “Induction of gene expression using a high concentration sugar mixture” (Danisco US Inc., priority 2002, dated 2015).

Test system: main cellulase genes in Trichoderma, cbh1, cbh2, egl1, and egl2

- Expression of the cellulase genes (carbon source available for growth): induced several thousand fold
- expression level of the major cellobiohydrolase 1 (cbh1) (media containing inducing carbon source compared with glucose containing media (Ilmen et al. 1997)): up-regulated several thousand fold
Compound: OC[C@H]1O[C@@H](O[C@H]2C(O)O[C@H](CO)[C@@H](O)[C@@H]2O)[C@H](O)[C@@H](O)[C@@H]1O (some centres unmarked) [sophorose]
